The values below are quoted from earlier work in patent publication US20090062282A1, “Substituted Amino-Pyrimidones and Uses Thereof” (AstraZeneca AB, priority 2004, published 2009).

Square brackets hold non-standard residues; d marks the D form. Peptide text beside a SMILES is read from it. * marks the point of attachment. Sta = CC(C)C[C@H](N)[C@@H](O)CC(=O)O; Isovaleryl = CC(C)CC(=O)*

This data set deals with BACE (Homo sapiens, UniProt P56817).
BACE, sequence (P56817 46-501): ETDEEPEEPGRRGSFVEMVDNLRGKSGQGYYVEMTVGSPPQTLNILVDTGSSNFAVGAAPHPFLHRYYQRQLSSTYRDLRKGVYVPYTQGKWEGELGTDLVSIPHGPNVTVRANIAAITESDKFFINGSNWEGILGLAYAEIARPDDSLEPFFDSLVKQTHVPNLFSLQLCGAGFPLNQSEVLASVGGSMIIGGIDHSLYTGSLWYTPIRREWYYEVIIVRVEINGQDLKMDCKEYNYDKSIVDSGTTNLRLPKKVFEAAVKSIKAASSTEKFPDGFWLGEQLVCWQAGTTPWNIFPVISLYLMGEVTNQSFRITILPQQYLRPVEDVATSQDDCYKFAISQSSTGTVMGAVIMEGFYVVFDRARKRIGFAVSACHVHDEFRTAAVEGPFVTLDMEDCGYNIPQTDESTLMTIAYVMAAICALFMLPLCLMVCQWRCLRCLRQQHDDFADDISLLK

In the case of `CC(C)CC(=O)N[C@H](C(=O)N[C@H](C(=O)N[C@@H](CC(C)C)[C@@H](O)CC(=O)N[C@@H](C)C(=O)N[C@@H](CC(C)C)[C@@H](O)CC(=O)O)C(C)C)C(C)C` [pepstatin] (Isovaleryl-VV[Sta]A[Sta]-OH), the “inhibition of BACE” value is “inhibited weakly”.
